Measurements taken from US4196205A, “3-Acetoxymethyl-7-(iminoacetamido)-cephalosporanic acid derivatives” (priority 1976, dated 1980).
Read-outs that look alike come from different tables or passages of the source.

How the values were obtained:
[1] = system: Proteus Mirabilis A 235; experiment: Experimental infection of Proteus Mirabilis in mice; format: in vivo
Experimental: Groups of 10 mice with an average weight of 22 g received intraperitoneally 0.5 ml of a 24 hour old culture in oxoid bouillon of Proteus Mirabilis A 235 diluted 1/4 with distilled water. The mice then received subcutaneously the compound of Examples 11 or 15 one hour and 5 and 24 hours after the infection and the results are reported in the following Table.

[2] = system: Staphylococcus aureus exp. n° 54 146; experiment: MIC, dilution in liquid medium; format: cell-based; settings: Staphylococcus aureus
Experimental: (§1) The method used was a dilution of a liquid medium where a series of tubes received the same quantity of a sterile nutritive media and increasing doses of the test compounds were placed therein. Then each tube was seeded with a bacterial strain and was incubated for 24 to 48 hours at 37° C. in an oven. The increasing inhibition was determined by transillumination to determine the minimum inhibiting concentration (MIC in […]) and the results are reported in the following Tables.

[3] = system: Bacillus subtilis ATCC 6 633; experiment: MIC, dilution in liquid medium; format: cell-based; settings: for MIC: Bacillus subtilis
Experimental: as §1

[4] = system: Streptococcus pyogenes A 561; experiment: MIC, dilution in liquid medium; format: cell-based; settings: Streptococcus pyogenes
Experimental: as §1

[5] = system: Pseudomonas 3 935 Exp. SG; experiment: MIC, dilution in liquid medium; format: cell-based; settings: Pseudomonas, 3935EXP.SG
Experimental: as §1

[6] = system: Serratia Resistant Gentamicine 2 532; experiment: MIC, dilution in liquid medium; format: cell-based
Experimental: as §1

[7] = system: Klebsiella pneumoniae 2 536 Resistant Gentamicine; experiment: MIC, dilution in liquid medium; format: cell-based; settings: Klebsiella pneumoniae
Experimental: as §1

[8] = system: Escherichia Coli Resistant Gentamicine, Tobramycine R 55 123 D; experiment: MIC, dilution in liquid medium; format: cell-based; settings: Escherichia coli
Experimental: as §1

[9] = system: Staphylococcus aureus UC 1 128 Pen-Resistant; experiment: MIC, dilution in liquid medium; format: cell-based; settings: Staphylococcus aureus
Experimental: as §1

[10] = system: Klebsiella pneumoniae Exp. 52 145; experiment: MIC, dilution in liquid medium; format: cell-based; settings: for MIC: Klebsiella pneumoniae
Experimental: as §1

[11] = system: Streptococcus faecalis 5 432; experiment: MIC, dilution in liquid medium; format: cell-based
Experimental: as §1

[12] = system: Streptococcus faecalis 99 F 74; experiment: MIC, dilution in liquid medium; format: cell-based; settings: Enterococcus faecalis
Experimental: as §1

[13] = system: Staphylococcus aureus ATCC 5 638 Pen-Sensible = UC 1061; experiment: MIC, dilution in liquid medium; format: cell-based
Experimental: as §1

[14] = system: Escherichia Coli Exp. TO26 B6; experiment: MIC, dilution in liquid medium; format: cell-based; settings: for MIC: Escherichia coli
Experimental: as §1

[15] = system: Providencia Du 48; experiment: MIC, dilution in liquid medium; format: cell-based; settings: for MIC: Providencia
Experimental: as §1

[16] = system: Proteus vulgaris (indol+) A 232; experiment: MIC, dilution in liquid medium; format: cell-based; settings: Proteus vulgaris
Experimental: as §1

[17] = system: Escherichia Coli Resistant Tetracycline ATCC 11 303 = UC 1261; experiment: MIC, dilution in liquid medium; format: cell-based; settings: Escherichia coli
Experimental: as §1

[18] = system: Salmonella typhimurium 420; experiment: MIC, dilution in liquid medium; format: cell-based; settings: Salmonella enterica, TYPHIMURIUM
Experimental: as §1

[19] = system: Proteus mirabilis (indol-) A 235; experiment: MIC, dilution in liquid medium; format: cell-based; settings: for MIC: Proteus mirabilis
Experimental: as §1

[20] = system: Escherichia Coli Sensible Tetracycline ATCC 9 637 = 1020; experiment: MIC, dilution in liquid medium; format: cell-based; settings: Escherichia coli
Experimental: as §1

CCO/N=C(/C(=O)NC1C(=O)N2C(C(=O)O)=C(COC(C)=O)CSC12)c1csc(N)n1 (stereo not drawn) [Example 15, anti isomer of 3-acetoxymethyl-7-[2-(2-amino-4-thiazolyl)-2-ethoxyiminoacetamido]-ceph-3-eme-4-carboxylic acid]
2: MORTALITY AFTER 28H ([1]; 1 mg subcutaneously)
5 µg/mL: M.I.C. ([19]; 24 H)
1: MORTALITY AFTER 6H55 ([1]; 0.5 mg subcutaneously) | MORTALITY AFTER 23H10 ([1]; 1 mg subcutaneously) | MORTALITY AFTER 23H30 ([1]; 1 mg subcutaneously) | MORTALITY AFTER 70H ([1]; 1 mg subcutaneously)
> 100 µg/mL: MIC ([5]; 24 h, read-out: M.I.C.) | MIC ([5]; 48 h, read-out: M.I.C.) | MIC ([6]; 24 h, read-out: M.I.C.) | MIC ([6]; 48 h, read-out: M.I.C.) | MIC ([7]; 24 h, read-out: M.I.C.) | MIC ([7]; 48 h, read-out: M.I.C.) | MIC ([11]; Enterococcus faecalis, 5432, 24 h, read-out: M.I.C.) | MIC ([11]; Enterococcus faecalis, 5432, 48 h, read-out: M.I.C.) | MIC ([12]; 99F74, 24 h, read-out: M.I.C.) | MIC ([12]; 99F74, 48 h, read-out: M.I.C.) | M.I.C. ([15]; 24 H) | MIC ([15]; DU48, 48 h, 48 H, read-out: M.I.C.) | MIC ([16]; 24 h, read-out: M.I.C.) | MIC ([16]; 48 h, read-out: M.I.C.) | MIC ([20]; ATCC9, 24 h, 24 H, read-out: M.I.C.) | MIC ([20]; ATCC9, 48 h, 48 H, read-out: M.I.C.)
40 µg/mL: MIC ([2]; 24 h) | MIC ([2]; 48 h) | MIC ([8]; 24 h) | MIC ([8]; 48 h) | MIC ([9]; UC1, 24 h, 24 H) | MIC ([9]; UC1, 48 h, 48 H) | M.I.C. ([10]; 24 H) | M.I.C. ([10]; 48 H) | M.I.C. ([14]; 48 H)
9: MORTALITY AFTER 21H30 ([1]; 0.5 mg subcutaneously)
10 µg/mL: MIC ([3]; ATCC6, 24 h, 24 H, read-out: M.I.C.) | MIC ([17]; 24 h, read-out: M.I.C.) | MIC ([17]; 48 h, read-out: M.I.C.) | MIC ([19]; 24 h, read-out: M.I.C.)
5: MORTALITY AFTER 21H30 ([1]; 1 mg subcutaneously)
0/10: Mice Alive on the 8th day ([1]; 0.5 mg subcutaneously) | Mice Alive on the 8th day ([1]; 1 mg subcutaneously)
1 µg/mL: MIC ([4]; A561, 24 h) | MIC ([4]; A561, 48 h)
100 µg/mL: MIC ([8]; 24 h, read-out: M.I.C.) | MIC ([8]; 48 h, read-out: M.I.C.) | MIC ([15]; DU48, 24 h, 24 H, read-out: M.I.C.) | MIC ([18]; 24 h, read-out: M.I.C.) | MIC ([18]; 48 h, read-out: M.I.C.)
20 µg/mL: M.I.C. ([3]; 24 H) | MIC ([10]; EXP.52145, 24 h, 24 H) | MIC ([10]; EXP.52145, 48 h, 48 H) | MIC ([13]; 24 h) | MIC ([13]; 48 h) | MIC ([17]; 24 h) | MIC ([17]; 48 h)
0.4 µg/mL: MIC ([4]; A561, 24 h, 24 H, read-out: M.I.C.) | MIC ([4]; A561, 48 h, 48 H, read-out: M.I.C.)

CO/N=C(/C(=O)NC1C(=O)N2C(C(=O)O)=C(COC(C)=O)CSC12)c1csc(N)n1 (stereo not drawn) [Product A, anti isomer of 3-acetoxymethyl-7-[2-(2-amino-4-thiazolyl)-2-methoxyimino-acetamido]-ceph-3-eme-4-carboxylic acid]
10 µg/mL: MIC ([8]; 24 h, read-out: M.I.C.) | MIC ([8]; 48 h, read-out: M.I.C.)
40 µg/mL: MIC ([2]; 24 h) | MIC ([2]; 48 h) | MIC ([13]; 24 h) | MIC ([13]; 48 h) | MIC ([15]; DU48, 24 h, 24 H) | MIC ([20]; ATCC9, 48 h, 48 H)
2 µg/mL: MIC ([17]; 24 h) | MIC ([17]; 48 h) | MIC ([19]; 24 h) | MIC ([19]; 48 h)
20 µg/mL: MIC ([3]; ATCC6, 24 h, 24 H) | MIC ([3]; ATCC6, 48 h, 48 H) | MIC ([18]; 24 h) | MIC ([20]; ATCC9, 24 h, 24 H)
5 µg/mL: MIC ([14]; 24 h) | MIC ([14]; 48 h)
1 µg/mL: MIC ([10]; EXP.52145, 24 h, 24 H) | MIC ([10]; EXP.52145, 48 h, 48 H)
0.4 µg/mL: MIC ([4]; A561, 24 h) | MIC ([4]; A561, 48 h)
> 40 µg/mL: MIC ([5]; 24 h) | MIC ([5]; 48 h) | MIC ([6]; 24 h) | MIC ([6]; 48 h) | MIC ([7]; 24 h) | MIC ([7]; 48 h) | MIC ([9]; UC1, 24 h, 24 H) | MIC ([9]; UC1, 48 h, 48 H) | MIC ([11]; Enterococcus faecalis, 5432, 24 h, 24 H) | MIC ([11]; Enterococcus faecalis, 5432, 48 h, 48 H) | MIC ([12]; 99F74, 24 h, 24 H) | MIC ([12]; 99F74, 48 h, 48 H) | MIC ([15]; DU48, 48 h, 48 H) | MIC ([16]; 24 h) | MIC ([16]; 48 h)
